Measurements published in paper PMC8156151 (The European Respiratory Journal, 2021).

Key:
Format in all cases: in vivo, human
MMP-8 = assay: Plasma biomarker MMP-8; settings: for MMP-8 raw data, Mean (SD) / MMP-8 least square means % baseline±SEM: IPF patients
Procedure: (§1) All patients, investigators, sites and study sponsor personnel were blinded to the study group assignments throughout the study. Patients underwent study-specific assessments on days 2, 3, 7, 14 and 15, and a post-study assessment was carried out 26–30 days after the last day of the study period. Assessments included vital signs (supine blood pressure, pulse, oxygen saturation, oral temperature and respiratory rate), spirometry, 12-lead ECG, physical examination, laboratory safety screen (haematology, biochemistry, urinalysis and urinary drugs of abuse screen) and blood sampling for PK measurements. All adverse events and concomitant medications were recorded from the time of the screening visit until the post-study follow-up visit. BAL was performed at day −1 (24 h before the first dose) and at day 14 (2 h after the last dose). The BAL procedure was performed as per international guidelines. Briefly, 240 mL of 0.9% saline at room temperature was instilled in 40 mL aliquots into the right middle lobe and aspirated by suction after each aliquot.
(§2) BAL cells were separated from fluid by centrifugation, and cells were collected, stained with antibodies (supplementary material) and then fixed before analysis using a LSR Fortessa flow cytometer (Becton Dickinson, Franklin Lakes, NJ, USA). Data were analysed using FlowJo software (Tree Star, Ashland, OR, USA). Macrophages were identified as having high side scatter properties and human leukocyte antigen-DR positivity. Gal-3 expression (mean fluorescence intensity) was determined from the macrophage gate (supplementary figures S1 and S2). […] Samples were analysed by magnetic Luminex assay (R&D Systems, Minneapolis, MN, USA) or ELISA.
(§3) For part 2 of the study, placebos were combined from the three dose-specific cohorts into a pooled control group (n=9). For alveolar macrophage Gal-3 expression and the plasma biomarkers, ANCOVA was performed for percentage of baseline ((day 14/day 1)×100). The ANCOVA model included effects for treatment group and baseline (day 1) value. […] An additional analysis including dose as a continuous covariate was also performed. The Pearson correlation coefficient (r) and associated p-value were calculated for percentage of baseline and day 14 values between plasma biomarkers and alveolar macrophage Gal-3 expression. […] The analysis is exploratory and there was no pre-planned adjustment for multiple testing; the study was not powered for this. Alveolar macrophage Gal-3 expression was considered the primary exploratory analysis with the pre-selected biomarkers secondary. A Bonferroni correction for multiple testing of the secondary end-points comparing the 10 mg group with placebo gives a critical value of 0.0063. Data are presented as the difference in least square means with 95% confidence interval and p-value unless otherwise stated. All analyses were performed using SAS version 9.4 (SAS Institute, Cary, NC, USA). […]

YKL-40 (CHI3L1) = assay: Plasma biomarker YKL-40; settings: for YKL-40 (CHI3L1) raw data, Mean (SD) / YKL-40 (CHI3L1) least square means % baseline±SEM: IPF patients
Procedure: as §1, §2, §3

SP-D = assay: Plasma biomarker SP-D; settings: for SP-D raw data, Mean (SD) / SP-D least square means % baseline±SEM: IPF patients
Procedure: as §1, §2, §3

MMP-1 = assay: Plasma biomarker MMP-1; settings: for MMP-1 raw data, Mean (SD) / MMP-1 least square means % baseline±SEM: IPF patients
Procedure: as §1, §2, §3

TIMP-1 = assay: Plasma biomarker TIMP-1; settings: for TIMP1 raw data, Mean (SD) / TIMP-1 least square means % baseline±SEM: IPF patients
Procedure: as §1, §2, §3

Osteopontin = assay: Plasma biomarker osteopontin; settings: for Osteopontin raw data, Mean (SD) / Osteopontin least square means % baseline±SEM: IPF patients
Procedure: as §1, §2, §3

PDGF-AA = assay: Plasma biomarker PDGF-AA; settings: for PDGF-AA raw data, Mean (SD) / PDGF-AA least square means % baseline±SEM: IPF patients
Procedure: as §1, §2, §3

PTX3 = assay: Plasma biomarker PTX3; settings: for Pentraxin-3 (PTX3) raw data, Mean (SD) / PTX3 least square means % baseline±SEM: IPF patients
Procedure: as §1, §2, §3

OC[C@H]1O[C@@H](S[C@@H]2O[C@H](CO)[C@H](O)[C@H](n3cc(-c4cccc(F)c4)nn3)[C@H]2O)[C@H](O)[C@@H](n2cc(-c3cccc(F)c3)nn2)[C@H]1O [TD139]
MMP-8 difference in least square means % baseline (95% CI) (MMP-8; 10 mg vs placebo, ANCOVA): −125.4 (−271.3–20.5) % baseline | MMP-8 raw data, Mean (SD) (MMP-8; Day 14, 0.3 mg): 1911.5 (1577.82) pg/ml | MMP-8 raw data, Mean (SD) (MMP-8; Day 14, 3 mg): 2263.3 (2428.78) pg/ml | MMP-8 raw data, Mean (SD) (MMP-8; Day 14, 10 mg): 44436.7 (97465.67) pg/ml | MMP-8 least square means % baseline±SEM (MMP-8; day 14, 0.3 mg once daily): 138.0±52.8 % baseline | MMP-8 least square means % baseline±SEM (MMP-8; day 14, 3 mg once daily): 115.2±52.7 % baseline | MMP-8 least square means % baseline±SEM (MMP-8; day 14, 10 mg once daily): 51.5±56.1 % baseline | YKL-40 (CHI3L1) difference in least square means % baseline (95% CI) (YKL-40 (CHI3L1); 10 mg vs placebo, ANCOVA): −28.9 (−55.9– −1.9) % baseline | YKL-40 (CHI3L1) raw data, Mean (SD) (YKL-40 (CHI3L1); Day 14, 0.3 mg): 45140.2 (34041.85) pg/ml | YKL-40 (CHI3L1) raw data, Mean (SD) (YKL-40 (CHI3L1); Day 14, 3 mg): 146819.5 (40114.19) pg/ml | YKL-40 (CHI3L1) raw data, Mean (SD) (YKL-40 (CHI3L1); Day 14, 10 mg): 79975.5 (38590.77) pg/ml | YKL-40 (CHI3L1) least square means % baseline±SEM (YKL-40 (CHI3L1); day 14, 0.3 mg once daily): 84.1±12.5 % baseline | YKL-40 (CHI3L1) least square means % baseline±SEM (YKL-40 (CHI3L1); day 14, 3 mg once daily): 50.2±18.6 % baseline | YKL-40 (CHI3L1) least square means % baseline±SEM (YKL-40 (CHI3L1); day 14, 10 mg once daily): 51.6±10.4 % baseline | SP-D difference in least square means % baseline (95% CI) (SP-D; 10 mg vs placebo, ANCOVA): 4.0 (−41.0–49.1) % baseline | SP-D raw data, Mean (SD) (SP-D; Day 14, 0.3 mg): 38987.4 (10734.36) pg/ml | SP-D raw data, Mean (SD) (SP-D; Day 14, 3 mg): 91473.6 (43437.58) pg/ml | SP-D raw data, Mean (SD) (SP-D; Day 14, 10 mg): 30347 (3552.88) pg/ml | SP-D least square means % baseline±SEM (SP-D; day 14, 0.3 mg once daily): 109.6±16.6 % baseline | SP-D least square means % baseline±SEM (SP-D; day 14, 3 mg once daily): 111.7±18.2 % baseline | SP-D least square means % baseline±SEM (SP-D; day 14, 10 mg once daily): 118.7±17.3 % baseline | MMP-1 difference in least square means % baseline (95% CI) (MMP-1; 10 mg vs placebo, ANCOVA): −102.1 (−251.4–47.3) % baseline | MMP-1 raw data, Mean (SD) (MMP-1; Day 14, 0.3 mg): 535.1 (449.22) pg/ml | MMP-1 raw data, Mean (SD) (MMP-1; Day 14, 3 mg): 1494.4 (647.67) pg/ml | MMP-1 raw data, Mean (SD) (MMP-1; Day 14, 10 mg): 537.5 (257.55) pg/ml | MMP-1 least square means % baseline±SEM (MMP-1; day 14, 0.3 mg once daily): 67.3±56.3 % baseline | MMP-1 least square means % baseline±SEM (MMP-1; day 14, 3 mg once daily): 107.1±59.1 % baseline | MMP-1 least square means % baseline±SEM (MMP-1; day 14, 10 mg once daily): 62.1±58.1 % baseline | TIMP-1 difference in least square means % baseline (95% CI) (TIMP-1; 10 mg vs placebo, ANCOVA): 3.8 (−10.6–18.2) % baseline | TIMP1 raw data, Mean (SD) (TIMP-1; Day 14, 0.3 mg): 38084.3 (4735.81) pg/ml | TIMP1 raw data, Mean (SD) (TIMP-1; Day 14, 3 mg): 49880.6 (1032.27) pg/ml | TIMP1 raw data, Mean (SD) (TIMP-1; Day 14, 10 mg): 45458.7 (11908.04) pg/ml | TIMP-1 least square means % baseline±SEM (TIMP-1; day 14, 0.3 mg once daily): 88.6±5.8 % baseline | TIMP-1 least square means % baseline±SEM (TIMP-1; day 14, 3 mg once daily): 107.0±6.0 % baseline | TIMP-1 least square means % baseline±SEM (TIMP-1; day 14, 10 mg once daily): 106.0±5.5 % baseline | Osteopontin difference in least square means % baseline (95% CI) (Osteopontin; 10 mg vs placebo, ANCOVA): −26.8 (−88.0–34.3) % baseline | Osteopontin raw data, Mean (SD) (Osteopontin; Day 14, 0.3 mg): 37756 (20451.51) pg/ml | Osteopontin raw data, Mean (SD) (Osteopontin; Day 14, 3 mg): 31032.4 (13230.48) pg/ml | Osteopontin raw data, Mean (SD) (Osteopontin; Day 14, 10 mg): 48630.5 (37737.51) pg/ml | Osteopontin least square means % baseline±SEM (Osteopontin; day 14, 0.3 mg once daily): 106.2±23.9 % baseline | Osteopontin least square means % baseline±SEM (Osteopontin; day 14, 3 mg once daily): 84±23.7 % baseline | Osteopontin least square means % baseline±SEM (Osteopontin; day 14, 10 mg once daily): 91.3±23.4 % baseline | PDGF-AA difference in least square means % baseline (95% CI) (PDGF-AA; 10 mg vs placebo, ANCOVA): −129.7 (−295.3–35.8) % baseline | PDGF-AA raw data, Mean (SD) (PDGF-AA; Day 14, 0.3 mg): 1299.7 (754.57) pg/ml | PDGF-AA raw data, Mean (SD) (PDGF-AA; Day 14, 3 mg): 4075.9 (5511.46) pg/ml | PDGF-AA raw data, Mean (SD) (PDGF-AA; Day 14, 10 mg): 2556.7 (987.79) pg/ml | PDGF-AA least square means % baseline±SEM (PDGF-AA; day 14, 0.3 mg once daily): 61.7±60.6 % baseline | PDGF-AA least square means % baseline±SEM (PDGF-AA; day 14, 3 mg once daily): 117.1±62.1 % baseline | PDGF-AA least square means % baseline±SEM (PDGF-AA; day 14, 10 mg once daily): 83.6±61.2 % baseline | PTX3 difference in least square means % baseline (95% CI) (PTX3; 10 mg vs placebo, ANCOVA): −69.6 (−220.3–81.2) % baseline | Pentraxin-3 (PTX3) raw data, Mean (SD) (PTX3; Day 14, 0.3 mg): 116.3 (214.7) pg/ml | Pentraxin-3 (PTX3) raw data, Mean (SD) (PTX3; Day 14, 3 mg): 629.9 (581.55) pg/ml | Pentraxin-3 (PTX3) raw data, Mean (SD) (PTX3; Day 14, 10 mg): 2534.7 (4451.2) pg/ml | PTX3 least square means % baseline±SEM (PTX3; day 14, 0.3 mg once daily): 51.8±68.6 % baseline | PTX3 least square means % baseline±SEM (PTX3; day 14, 3 mg once daily): 74.2±53.1 % baseline | PTX3 least square means % baseline±SEM (PTX3; day 14, 10 mg once daily): 67.0±56.1 % baseline
